{"source": "patent US20220324862A1", "about": "“PYRIDOPYRIMIDINONE COMPOUNDS” (Acerand Therapeutics (USA) Limited, priority 2021, published 2022)"}
{"biological_target": "T1, protein-protein interaction between SOS1 and KRAS-G12D (Homo sapiens, UniProt Q07889)", "T1 construct": "The purified GST-SOS1 catalytic domain (residues 564-1049) was first diluted in assay buffer; made in house; host or cells: E. coli BL21 (DE3) for SOS1; E. coli BL21 carrying a BirA plasmid for KRAS-G12D", "T1 sequence (Q07889 564-1049)": "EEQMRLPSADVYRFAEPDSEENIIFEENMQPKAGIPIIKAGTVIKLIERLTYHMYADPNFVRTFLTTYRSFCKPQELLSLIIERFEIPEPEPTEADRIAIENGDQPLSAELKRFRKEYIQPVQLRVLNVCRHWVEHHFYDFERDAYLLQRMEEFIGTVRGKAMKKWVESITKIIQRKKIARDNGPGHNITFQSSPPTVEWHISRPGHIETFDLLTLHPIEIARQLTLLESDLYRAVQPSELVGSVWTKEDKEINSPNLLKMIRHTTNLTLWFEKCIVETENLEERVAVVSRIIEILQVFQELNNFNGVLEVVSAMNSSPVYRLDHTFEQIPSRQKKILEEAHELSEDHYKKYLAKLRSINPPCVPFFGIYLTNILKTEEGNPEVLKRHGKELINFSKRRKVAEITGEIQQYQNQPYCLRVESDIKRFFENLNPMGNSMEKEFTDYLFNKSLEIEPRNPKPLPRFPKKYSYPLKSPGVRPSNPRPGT", "experiment": "HTRF Based Protein-Protein Interaction Assay", "assay_type": "binding", "details": "HTRF; GST-SOS1 2.5 nM, KRAS-G12D 100 nM, GDP 10 uM; read-out: IC50 value, inhibition of SOS1/KRAS-G12D protein-protein interaction", "how_it_was_run": "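GST-SOS1 (residues 564-1049, 2.5 nM) preincubated 15 min at 25° C with compound (0.5 nM-10 μM, 3-fold), then biotinylated avi-KRAS-G12D (1-169, 100 nM) with 10 uM GDP added for 60 min. HTRF read after 5 h with anti-GST-Tb cryptate/streptavidin-XL665; buffer HEPES pH 7.5, Brij-35, TCEP, BSA.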", "units": {"IC50": "µM"}}
{"smiles": "C#C[C@@H](Nc1nc(C)nc2cc(=O)n(C3CCOCC3)cc12)c1cccc(C(F)(F)F)c1C", "note": "[Compound 4, (R)-2-methyl-4-((1-(2-methyl-3-(trifluoromethyl)phenyl)prop-2-yn-1-yl)amino)-6-(tetrahydro-2H-pyran-4-yl)pyrido[4,3-d]pyrimidin-7(6H)-one]", "IC50": "< 0.1"}
{"smiles": "C#C[C@@H](Nc1nc(C)nc2cc(=O)n(C3(C(F)F)CC3)cc12)c1cccc(C(F)(F)F)c1C", "note": "[Compound 9, (R)-6-(1-(difluoromethyl)cyclopropyl)-2-methyl-4-((1-(2-methyl-3-(trifluoromethyl)phenyl)prop-2-yn-1-yl)amino)pyrido[4,3-d]pyrimidin-7(6H)-one]", "IC50": "< 0.1"}
{"smiles": "C#C[C@@H](Nc1ncnc2c1cc(C1(O)CCN(C(C)=O)C1)c(=O)n2C)c1cccc(C(F)F)c1F", "note": "(stereo partly drawn) [Compound 43, 6-(1-acetyl-3-hydroxypyrrolidin-3-yl)-4-{[(1R)-1-[3-(difluoromethyl)-2-fluorophenyl]prop-2-yn-1-yl]amino}-8-methyl-7H,8H-pyrido[2,3-d]pyrimidin-7-one]", "IC50": "0.1 to 0.2"}
{"smiles": "C#C[C@@H](Nc1ncnc2c1cc(C1(O)CCN(C(C)=O)CC1)c(=O)n2C)c1cccc(C(F)F)c1F", "note": "[Compound 46, 6-(1-acetyl-4-hydroxypiperidin-4-yl)-4-{[(1R)-1-[3-(difluoromethyl)-2-fluorophenyl]prop-2-yn-1-yl]amino}-8-methyl-7H,8H-pyrido[2,3-d]pyrimidin-7-one]", "IC50": "< 0.1"}
{"smiles": "C#C[C@@H](Nc1ncnc2c1cc(C1(OC)CCN(C(C)=O)CC1)c(=O)n2C)c1cccc(C(F)F)c1F", "note": "[Compound 48, (R)-6-(1-acetyl-4-methoxypiperidin-4-yl)-4-((1-(3-(difluoromethyl)-2-fluorophenyl)prop-2-yn-1-yl)amino)-8-methylpyrido[2,3-d]pyrimidin-7(8H)-one]", "IC50": "0.1 to 0.2"}
{"smiles": "C#C[C@@H](Nc1ncnc2c1cc(C1(OC)CCN(C(C)=O)C1)c(=O)n2C)c1cccc(C(F)F)c1F", "note": "(stereo partly drawn) [Compound 49, 6-(1-acetyl-3-methoxypyrrolidin-3-yl)-4-{[(1R)-1-[3-(difluoromethyl)-2-fluorophenyl]prop-2-yn-1-yl]amino}-8-methyl-7H,8H-pyrido[2,3-d]pyrimidin-7-one]", "IC50": "< 0.1"}
{"smiles": "C#C[C@@H](Nc1nc(C)nc2c1cc(C1(O)CCN(C(C)=O)CC1)c(=O)n2C)c1cccc(C(F)(F)F)c1C", "note": "[Compound 54, 6-(1-acetyl-4-hydroxypiperidin-4-yl)-2,8-dimethyl-4-{[(1R)-1-[2-methyl-3-(trifluoromethyl)phenyl]prop-2-yn-1-yl]amino}-7H,8H-pyrido[2,3-d]pyrimidin-7-one]", "IC50": "< 0.1"}
{"smiles": "C#C[C@@H](Nc1nc(C)nc2c1cc(C1(OC)CCN(C(C)=O)CC1)c(=O)n2C)c1cccc(C(F)(F)F)c1C", "note": "[Compound 55, 6-(1-acetyl-4-methoxypiperidin-4-yl)-2,8-dimethyl-4-{[(1R)-1-[2-methyl-3-(trifluoromethyl)phenyl]prop-2-yn-1-yl]amino}-7H,8H-pyrido[2,3-d]pyrimidin-7-one]", "IC50": "< 0.1"}
{"smiles": "C#C[C@@H](Nc1nc(C)nc2c1cc(C1(F)CCN(C(C)=O)CC1)c(=O)n2C)c1cccc(C(F)(F)F)c1C", "note": "[Compound 56, 6-(1-acetyl-4-fluoropiperidin-4-yl)-2,8-dimethyl-4-{[(1R)-1-[2-methyl-3-(trifluoromethyl)phenyl]prop-2-yn-1-yl]amino}-7H,8H-pyrido[2,3-d]pyrimidin-7-one]", "IC50": "< 0.1"}
{"smiles": "C#C[C@@H](Nc1ncnc2c1cc(C1(NC(C)=O)CCN(C(C)=O)CC1)c(=O)n2C)c1cccc(C(F)(F)F)c1C", "note": "[Compound 57, (R)-N-(1-acetyl-4-(8-methy-4-((1-(2-methyl-3-(trifluoromethyl)phenyl)prop-2-yn-1-yl)amino)-7-oxo-7,8-dihydropyrido[2,3-d]pyrimidin-6-yl)piperidin-4-yl)acetamide]", "IC50": "< 0.1"}
{"smiles": "C#C[C@@H](Nc1ncnc2c1cc(C1(NC(C)=O)CCOCC1)c(=O)n2C)c1cccc(C(F)(F)F)c1C", "note": "[Compound 58, (R)-N-(4-(8-methy-4-((1-(2-methyl-3-(trifluoromethyl)phenyl)prop-2-yn-1-yl}amino)-7-oxo-7,8-dihydropyrido[2,3-d]pyrimidin-6-yl)tetrahydro-2H-pyran-4-yl)acetamide]", "IC50": "0.1 to 0.2"}
